# Results as given in ChEMBL document CHEMBL1157997, “A new biologically active acylated triterpene saponin from Silene fortunei” (J Nat Prod, 1999).
# How the values were obtained:
# [1] = Enhancement of human neutrophil granulocytes phagocytosis at 10 to 100 ug/mL by flow cytometric analysis; assay type: functional
# [2] = Cytotoxicity against human neutrophil granulocytes upto 100 ug/mL
structure (smiles),measurement,setting,value
CC(=O)O[C@@H]1[C@H](O[C@@H]2O[C@H](CO)[C@@H](O)[C@H](O)[C@H]2O)[C@@H](O[C@@H]2O[C@@H](C)[C@H](O[C@@H]3OC[C@@H](O)[C@H](O)[C@H]3O[C@@H]3OC[C@H](O)[C@H](O)[C@H]3O[C@@H]3OC[C@H](O)[C@H](O)[C@H]3O)[C@@H](O)[C@H]2O)[C@H](OC(=O)[C@]23CCC(C)(C)C[C@H]2C2=CC[C@@H]4[C@@]5(C)CC[C@H](O[C@@H]6O[C@H](C(=O)O)[C@@H](O)[C@H](O)[C@H]6O[C@@H]6O[C@H](CO)[C@H](O)[C@H](O)[C@H]6O)[C@@](C)(C=O)C5=CC[C@@]4(C)[C@]2(C)C[C@H]3O)O[C@@H]1C,Activity,[1],24%
same,Activity,[2],Non-toxic
